Test results reported in patent publication US20100249175A1, “Dicationic compounds which selectively recognize G-quadruplex DNA” (priority 2005, published 2010).

Key:
[1] = tested on: STIB 900 strain of Trypanosoma brucei rhodesiense (T. b. r.); assay: In vivo T. b. r. STIB 900 mouse model; conditions: 20 mg/kg ip
Procedure: Groups of four mice were infected intraperitoneally with 2×10^5 bloodstream forms of T. b. r. STIB 900 which originates from a patient in Tanzania. On days 3, 4, 5, and 6 post-infection the experimental groups were treated with the drugs either by the intraperitoneal or for prodrugs by the oral route. Usually the highest tolerated dose was used which was determined in a pretoxicological experiment. Parasitemia of the mice was checked daily up to day 14 post-infection and thereafter 2 times per week up to day 60. One group of mice was not treated and acted as control. For relapsing mice, the day of death was recorded and the survival time determined.

[2] = tested on: Tetrahymena telomere, d[(T2G4)4] (SEQ ID NO: 4); assay: CD titration with Tetrahymena telomere; type: binding; conditions: HEPES buffer containing 50 mM KCl
Description: (§1) The oligonucleotides d[AG3(T2AG3)3] (SEQ ID NO: 1), d[AG3TG4AG3TG4A] (SEQ ID NO: 2), d[G4(T4G4)3] (SEQ ID NO: 3), d[(T2G4)4] (SEQ ID NO: 4), d[(GC)7] (SEQ ID NO: 5), d[[…]] (SEQ ID NO: 6), d[G2T2G2TGTG2T2G2] (SEQ ID NO: 7), d[[…]] (SEQ ID NO: 8), d[[…]] (SEQ ID NO: 9), d[[…]] (SEQ ID NO: 10), d[[…]] (SEQ ID NO: 11), d[TTAGGGT] (SEQ ID NO: 12), and d[TGGGGT] (SEQ ID NO: 13) were purchased with HPLC purification from Midland Certified Reagent Company (The Midland Certified Reagent Company, Inc., Midland, Tex., USA). The concentration of each DNA sample was determined spectrophotometrically at 260 nm using the nearest neighbor extinction coefficient.
(§2) Stock solutions of individual dicationic polyaryl compounds were prepared in double distilled water and diluted to working concentrations immediately before use with buffer. All measurements were performed at 20° C. in a 10 mM HEPES buffer (pH 7.4) containing 3 mM EDTA and 50 mM KCl, NaCl, or LiCl. Absorbance spectra were obtained on a Varian Cary 300 BIO UV-visible spectrophotometer (Varian, Inc., Palo Alto, Calif., United States of America) in a quartz cell with a 1 cm pathlength. CD spectra were recorded using a Jasco J-810 spectrapolarimeter (Jasco, Inc., Easton, Md., United States of America) in a 1-cm cell using an instrument scanning speed of 50 nm/min with a response time of 1 s. The spectra were averaged over four scans. […]

[3] = tested on: modified human telomere sequences; assay: CD titration with modified human telomere sequences; type: binding; conditions: 50 mM KCl, 10 mM K2HPO4, 0.1 mM EDTA, pH 7.0
Description: as §1
as §2, with “All measurements were performed at 20° C. in a 10 mM HEPES buffer (pH 7.4) containing 3 mM EDTA and 50 mM KCl, NaCl, or LiCl.” left out, “scans. A buffer baseline scan was collected in the same cuvette and subtracted from the average scan for each sample.” for “scans.”

## N=C(N)c1ccc(-c2ccc(-c3ccc(C(=N)N)o3)o2)cc1 [Compound 8, 5′-(4-Amidinophenyl)-2,2′-bifuran-5-carboxamidine]
[1]; mice cured / mice infected, days 3-6 post-infection
  In Vivo T.b.r. cures: 2/4
[1]; observation up to day 60
  In Vivo T.b.r. survival time: > 45.5 days
[2]
  exciton splitting in CD spectra (in words): exhibited exciton splitting
[3]
  exciton splitting in CD spectra (in words): exhibited exciton splitting
